Results: patent US20240409585A1, “MACROCYCLIC IMMUNOMODULATORS” (priority 2021, published 2024)
Like-named read-outs stand apart in the source and are kept apart here. Numbered stars: 1 amine (or outer) side, 2 acyl side, 3 side chain; on linkers, the order of the positions; unused ones are H or OH. Bridge positions count the residues as written; N and C are the ends. Square brackets hold non-standard residues; d marks the D form. Peptide text beside a SMILES is read from it. * marks the point of attachment. ξ: configuration not given here. X15 = COC(=O)c1ccc(NS(=O)(=O)NC(=O)C[C@H](N[*:1])C(=O)[*:2])cc1; X36 = O=C([C@H](Cc1ccc(-c2ccsc2)cc1)N[*:1])[*:2]; Phe(3-CF3) = N[C@@H](Cc1cccc(C(F)(F)F)c1)C(=O)O; Ala(morpholin-4-yl) = N[C@@H](CN1CCOCC1)C(=O)O; Phe(4-COOH) = N[C@@H](Cc1ccc(C(=O)O)cc1)C(=O)O; Trp(7-Me) = Cc1cccc2c(C[C@H](N)C(=O)O)c[nH]c12; Bip = N[C@@H](Cc1ccc(-c2ccccc2)cc1)C(=O)O; X37 = O=C([C@H](Cc1cn[nH]c1)N[*:1])[*:2]; Phe(3-Me) = Cc1cccc(C[C@H](N)C(=O)O)c1; Val(3-OH) = CC(C)(O)[C@H](N)C(=O)O; h4Pal = N[C@@H](CCc1ccncc1)C(=O)O; aIle = CC[C@@H](C)[C@H](N)C(=O)O; 3Pal = N[C@@H](Cc1cccnc1)C(=O)O; 4Pal = N[C@@H](Cc1ccncc1)C(=O)O; Cha = N[C@@H](CC1CCCCC1)C(=O)O; Cit = NC(=O)NCCC[C@H](N)C(=O)O; Thr(3ξ) = CC(O)[C@H](N)C(=O)O; Carboxymethyl = O=C(O)C*; NMeA = CN[C@@H](C)C(=O)O; Orn = NCCC[C@H](N)C(=O)O; Pra = C#CC[C@H](N)C(=O)O; Dab = NCC[C@H](N)C(=O)O; Abu = CC[C@H](N)C(=O)O; ξV = CC(C)C(N)C(=O)O

Molecular target: T1, PE-labeled human PD-L1-Ig binding to Jurkat cell line over-expressing human PD-1 (Jurkat-PD-1) (Homo sapiens, UniProt Q15116)
T1 construct: expressed in transfected cells; host or cells: Jurkat
Assay: Jurkat-PD-1 Cell Binding High-Content Screening Assay (CBA): Method 1

[1] = Jurkat-hPD-1 cells, PE-labeled PD-L1-Ig 20 nM final, read-out: Jurkat HPDL1 PD1 IC50 (uM) (Method 1)

T1 sequence (Q15116 25-288): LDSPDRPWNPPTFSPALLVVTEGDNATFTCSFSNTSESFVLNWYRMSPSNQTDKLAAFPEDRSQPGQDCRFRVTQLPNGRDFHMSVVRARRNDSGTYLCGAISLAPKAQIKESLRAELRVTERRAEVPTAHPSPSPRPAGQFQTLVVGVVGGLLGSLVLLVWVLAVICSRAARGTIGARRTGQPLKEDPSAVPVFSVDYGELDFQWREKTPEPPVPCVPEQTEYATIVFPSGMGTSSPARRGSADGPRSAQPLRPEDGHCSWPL
Protocol: Phycoerythrin (PE) was covalently linked to the Ig epitope tag of human PD-L1-Ig and fluorescently-labeled PD-L1-Ig was used for binding studies with a Jurkat cell line over-expressing human PD-1 (Jurkat-PD-1). Briefly, 8×10^3 Jurkat-hPD-1 cells were seeded into 384 well plates in 20 μl of DMEM supplemented with 10% fetal calf serum. 100 nl of compound was added to cells followed by incubation at 37° C. for 2 hours. Then, 5 μl of PE-labeled PD-L1-Ig (20 nM final), diluted in DMEM supplemented with 10% fetal calf serum. […] Data was collected and processed using a Cell Insight NXT High Content Imager and associated software.

| Structure (SMILES) | IC50 [1] [µM] | also measured |
| --- | --- | --- |
| CC(C)C[C@@H]1NC(=O)[C@H](CCN)NC(=O)[C@@H](CC(C)C)NC(=O)[C@H](C)N(C)C(=O)[C@H](CCCNC(=N)N)NC(=O)[C@H](Cc2ccc(-c3ccccc3)cc2)NC(=O)[C@H](C(C)C)NC(=O)[C@H](Cc2c[nH]c3ccccc23)NC(=O)[C@H](CC(=O)O)NC(=O)[C@H](Cc2ccc(O)cc2)NC(=O)[C@H](CCCN)NC(=O)CSC[C@@H](C(=O)N[C@@H](C)C(N)=O)NC(=O)[C@H]([C@@H](C)O)NC(=O)[C@H](C(C)C)NC1=O [Compound 1341] ({CH2CO}-[Orn]YDWV[Bip]R[NMeA][dL][Dab]LVTCA-NH2; thioether N-14) | 0.05 |  |
| CC(C)C[C@@H]1NC(=O)[C@H](CCN)NC(=O)[C@@H](CC(C)C)NC(=O)[C@H](C)N(C)C(=O)[C@H](CCCNC(=N)N)NC(=O)[C@H](Cc2ccc(-c3ccccc3)cc2)NC(=O)[C@H](C(C)C)NC(=O)[C@H](Cc2c[nH]c3ccccc23)NC(=O)[C@H](CC(=O)O)NC(=O)[C@H](Cc2ccc(O)cc2)NC(=O)[C@H](Cc2cn[nH]c2)NC(=O)CSC[C@@H](C(=O)N[C@@H](C)C(N)=O)NC(=O)[C@H]([C@@H](C)O)NC(=O)[C@H](C(C)C)NC1=O [Compound 1159] ({CH2CO}-[X37]YDWV[Bip]R[NMeA][dL][Dab]LVTCA-NH2; thioether N-14) | 0.07 |  |
| CC(C)C[C@@H]1NC(=O)[C@H](CCCNC(=N)N)NC(=O)[C@@H](CC(C)C)NC(=O)[C@H](C)N(C)C(=O)[C@H](C(C)C)NC(=O)[C@H](Cc2ccc(-c3ccccc3)cc2)NC(=O)[C@H](C(C)C)NC(=O)[C@H](Cc2cccc(C(F)(F)F)c2)NC(=O)[C@H](CC(=O)O)NC(=O)[C@H](Cc2ccc(O)cc2)NC(=O)[C@H](CC(N)=O)NC(=O)CSC[C@@H](C(=O)N[C@@H](C)C(N)=O)NC(=O)[C@H]([C@@H](C)O)NC(=O)[C@H](C(C)C)NC1=O [Compound 1291] ({CH2CO}-NYD[Phe(3-CF3)]V[Bip]V[NMeA][dL]RLVTCA-NH2; thioether N-14) | 0.02 |  |
| C#CC[C@H](NC(=O)[C@@H](C)NC(=O)[C@@H]1CSCC(=O)N[C@@H](Cc2c[nH]cn2)C(=O)N[C@@H](Cc2ccc(OCC(=O)O)cc2)C(=O)N[C@@H](CC(=O)O)C(=O)N[C@@H](Cc2c[nH]c3ccccc23)C(=O)N[C@@H](C(C)C)C(=O)N[C@@H](Cc2ccc(-c3ccccc3)cc2)C(=O)N[C@@H](C(C)C)C(=O)N(C)[C@@H](C)C(=O)N[C@H](CC(C)C)C(=O)N[C@@H](CCN)C(=O)N[C@@H](CC2CCCCC2)C(=O)N[C@@H](C(C)(C)O)C(=O)N[C@@H](CO)C(=O)N1)C(=O)O [Compound 1943] ({CH2CO}-HY(Carboxymethyl)DWV[Bip]V[NMeA][dL][Dab][Cha][Val(3-OH)]SC[dA][Pra]-OH; thioether N-14) | 0.01 |  |
| CC(C)C[C@@H]1NC(=O)[C@H](CCN)NC(=O)[C@@H](CC(C)C)NC(=O)[C@H](C)N(C)C(=O)[C@H](CCCNC(N)=O)NC(=O)[C@H](Cc2ccc(-c3ccccc3)cc2)NC(=O)[C@H](C(C)C)NC(=O)[C@H](Cc2c[nH]c3ccccc23)NC(=O)[C@H](CC(=O)O)NC(=O)[C@H](Cc2cccnc2)NC(=O)[C@H](Cc2cccnc2)NC(=O)CSC[C@@H](C(=O)N[C@@H](C)C(N)=O)NC(=O)[C@H]([C@@H](C)O)NC(=O)[C@H](C(C)C)NC1=O [Compound 1339] ({CH2CO}-[3Pal][3Pal]DWV[Bip][Cit][NMeA][dL][Dab]LVTCA-NH2; thioether N-14) | 0.05 |  |
| CC[C@@H]1NC(=O)[C@H](CCCNC(=N)N)NC(=O)[C@@H](CC(C)C)NC(=O)[C@H](C)N(C)C(=O)[C@H](CCCNC(=N)N)NC(=O)[C@H](Cc2ccc(-c3ccccc3)cc2)NC(=O)[C@H](C(C)C)NC(=O)[C@H](Cc2c[nH]c3ccccc23)NC(=O)[C@H](CC(=O)O)NC(=O)[C@H](Cc2ccc(O)cc2)NC(=O)[C@H](Cc2ccccc2)NC(=O)CSC[C@@H](C(=O)N[C@@H](C)C(N)=O)NC(=O)[C@H]([C@@H](C)O)NC(=O)[C@H](C(C)C)NC1=O [Compound 1114] ({CH2CO}-FYDWV[Bip]R[NMeA][dL]R[Abu]VTCA-NH2; thioether N-14) | 0.93 |  |
| CC(C)C[C@@H]1NC(=O)[C@H](CCCNC(=N)N)NC(=O)[C@@H](C(C)C)NC(=O)[C@H](C)N(C)C(=O)[C@H](CCCNC(=N)N)NC(=O)[C@H](Cc2ccc(-c3ccccc3)cc2)NC(=O)[C@H](C(C)C)NC(=O)[C@H](Cc2c[nH]c3ccccc23)NC(=O)[C@H](CC(=O)O)NC(=O)[C@H](Cc2ccc(O)cc2)NC(=O)[C@H](Cc2ccccc2)NC(=O)CSC[C@@H](C(=O)N[C@@H](C)C(N)=O)NC(=O)[C@H]([C@@H](C)O)NC(=O)[C@H](C(C)C)NC1=O [Compound 1060] ({CH2CO}-FYDWV[Bip]R[NMeA][dV]RLVTCA-NH2; thioether N-14) | 0.11 |  |
| Cc1cccc2c(C[C@@H]3NC(=O)[C@H](CC(=O)O)NC(=O)[C@H](Cc4ccc(O)cc4)NC(=O)[C@H](Cc4ccccc4)NC(=O)CSC[C@@H](C(=O)N[C@@H](C)C(N)=O)NC(=O)[C@H]([C@@H](C)O)NC(=O)[C@H](C(C)C)NC(=O)[C@H](CC(C)C)NC(=O)[C@H](CCCNC(=N)N)NC(=O)[C@@H](CC(C)C)NC(=O)[C@H](C)N(C)C(=O)[C@H](CCCNC(=N)N)NC(=O)[C@H](Cc4ccc(-c5ccccc5)cc4)NC(=O)[C@H](C(C)C)NC3=O)c[nH]c12 [Compound 1097] ({CH2CO}-FYD[Trp(7-Me)]V[Bip]R[NMeA][dL]RLVTCA-NH2; thioether N-14) | 0.21 |  |
| CC(C)C[C@@H]1NC(=O)[C@H](CCN)NC(=O)[C@@H](CC(C)C)NC(=O)[C@H](C)N(C)C(=O)[C@H](CCCNC(=N)N)NC(=O)[C@H](Cc2ccc(-c3ccccc3)cc2)NC(=O)[C@H](C(C)C)NC(=O)[C@H](Cc2c[nH]c3ccccc23)NC(=O)[C@H](CC(=O)O)NC(=O)[C@H](Cc2ccc(O)cc2)NC(=O)[C@H](Cc2ccccc2)NC(=O)CSC[C@@H](C(=O)N[C@@H](C)C(N)=O)NC(=O)[C@H](CO)NC(=O)[C@H](C(C)C)NC1=O [Compound 1030] ({CH2CO}-FYDWV[Bip]R[NMeA][dL][Dab]LVSCA-NH2; thioether N-14) |  | IC50 (Jurkat HPDL1 PD1 IC50 (uM) (Method 1), Jurkat-hPD-1 cells, PE-labeled PD-L1-Ig 20 nM final): 0.03 µM |
| CC(C)C[C@@H]1NC(=O)[C@H](CCN)NC(=O)[C@@H](CC(C)C)NC(=O)[C@H](C)N(C)C(=O)[C@H](CCCNC(N)=O)NC(=O)[C@H](Cc2ccc(-c3ccccc3)cc2)NC(=O)[C@H](C(C)C)NC(=O)[C@H](Cc2c[nH]c3ccccc23)NC(=O)[C@H](CC(=O)O)NC(=O)[C@H](Cc2ccncc2)NC(=O)[C@H](Cc2cccnc2)NC(=O)CSC[C@@H](C(=O)N[C@@H](C)C(N)=O)NC(=O)[C@H]([C@@H](C)O)NC(=O)[C@H](C(C)C)NC1=O [Compound 1333] ({CH2CO}-[3Pal][4Pal]DWV[Bip][Cit][NMeA][dL][Dab]LVTCA-NH2; thioether N-14) | 0.02 |  |
| CC[C@@H](C)[C@@H]1NC(=O)[C@H](Cc2ccc(-c3ccccc3)cc2)NC(=O)[C@H](CC(C)C)NC(=O)[C@H](Cc2c[nH]c3ccccc23)NC(=O)[C@H](CC(=O)O)NC(=O)[C@H](Cc2ccc(C(=O)O)cc2)NC(=O)[C@H](Cc2ccc(OCC(=O)O)cc2)NC(=O)CSC[C@@H](C(=O)N[C@@H](CCCCN)C(N)=O)NC(=O)[C@H](CO)NC(=O)C(C(C)C)NC(=O)[C@H](CC(C)C)NC(=O)[C@H](CC(N)=O)NC(=O)[C@@H](CC(C)C)NC(=O)[C@H](C)N(C)C1=O (stereo partly drawn) [Compound 2100] ({CH2CO}-Y(Carboxymethyl)[Phe(4-COOH)]DWL[Bip][aIle][NMeA][dL]NL[ξV]SCK-NH2; thioether N-14) | 0.03 |  |
| CC(C)C[C@@H]1NC(=O)[C@H](CCCNC(=N)N)NC(=O)[C@@H](CC(C)C)NC(=O)[C@H](C)N(C)C(=O)[C@H](CCCNC(=N)N)NC(=O)[C@H](Cc2ccc(-c3ccccc3)cc2)NC(=O)[C@H](C(C)C)NC(=O)[C@H](Cc2c[nH]c3ccccc23)NC(=O)[C@H](CC(=O)O)NC(=O)[C@H](CCc2ccncc2)NC(=O)[C@H](Cc2ccccc2)NC(=O)CSC[C@@H](C(=O)N[C@@H](C)C(N)=O)NC(=O)[C@H]([C@@H](C)O)NC(=O)[C@H](C(C)C)NC1=O [Compound 1084] ({CH2CO}-F[h4Pal]DWV[Bip]R[NMeA][dL]RLVTCA-NH2; thioether N-14) | 0.09 |  |
| COC(=O)c1ccc(NS(=O)(=O)NC(=O)C[C@@H]2NC(=O)[C@H](Cc3ccc(C(=O)O)cc3)NC(=O)[C@H](CN3CCOCC3)NC(=O)CSC[C@@H](C(=O)N[C@@H](CCN)C(N)=O)NC(=O)[C@H](CCCN)NC(=O)[C@H](C(C)C)NC(=O)[C@H](CC3CCCCC3)NC(=O)[C@H](CCN)NC(=O)[C@@H](CC(C)C)NC(=O)[C@H](C)N(C)C(=O)[C@H](CCC(N)=O)NC(=O)[C@H](Cc3ccc(-c4ccccc4)cc3)NC(=O)[C@H](Cc3ccc(C(=O)O)cc3)NC(=O)[C@H](Cc3cccc(C(F)(F)F)c3)NC2=O)cc1 [Example 5083] ({CH2CO}-[Ala(morpholin-4-yl)][Phe(4-COOH)][X15][Phe(3-CF3)][Phe(4-COOH)][Bip]Q[NMeA][dL][Dab][Cha]V[Orn]C[Dab]-NH2; thioether N-14) |  | IC50 (Jurkat-PD-1 cells, PE-labeled PD-L1-Ig, μM, read-out: CBA Method 1 μM): 0.355 µM |
| CC(C)C[C@@H]1NC(=O)[C@H](CCN)NC(=O)[C@@H](CC(C)C)NC(=O)[C@H](C)N(C)C(=O)[C@H](CCCNC(=N)N)NC(=O)[C@H](Cc2ccc(-c3ccsc3)cc2)NC(=O)[C@H](C(C)C)NC(=O)[C@H](Cc2c[nH]c3ccccc23)NC(=O)[C@H](CC(=O)O)NC(=O)[C@H](Cc2ccc(O)cc2)NC(=O)[C@H](CC(N)=O)NC(=O)CSC[C@@H](C(=O)N[C@@H](C)C(N)=O)NC(=O)[C@H]([C@@H](C)O)NC(=O)[C@H](C(C)C)NC1=O [Compound 1224] ({CH2CO}-NYDWV[X36]R[NMeA][dL][Dab]LVTCA-NH2; thioether N-14) | 0.04 |  |
| Cc1cccc(C[C@@H]2NC(=O)[C@H](CC(=O)O)NC(=O)[C@H](Cc3ccc(OCC(=O)O)cc3)NC(=O)[C@H](C(C)O)NC(=O)CSC[C@@H](C(=O)N[C@@H](CCN)C(N)=O)NC(=O)[C@H](C(C)O)NC(=O)[C@H](C(C)(C)O)NC(=O)[C@H](CC3CCCCC3)NC(=O)[C@H](CCN)NC(=O)[C@@H](CC(C)C)NC(=O)[C@H](C)N(C)C(=O)[C@H](Cc3ccc(OCC(=O)O)cc3)NC(=O)[C@H](Cc3ccc(-c4ccccc4)cc3)NC(=O)[C@H](Cc3ccc(C(=O)O)cc3)NC2=O)c1 (stereo partly drawn) [Compound 2148] ({CH2CO}-[Thr(3ξ)]Y(Carboxymethyl)D[Phe(3-Me)][Phe(4-COOH)][Bip]Y(Carboxymethyl)[NMeA][dL][Dab][Cha][Val(3-OH)][Thr(3ξ)]C[Dab]-NH2; thioether N-14) | 0.01 |  |
